The text below walks through data of publication PMC3289669, “Capacity for Absorption of Water-Soluble Secondary Metabolites Greater in Birds than in Rodents” (PLoS ONE, 2012).

“And” between values parts separate entries of the source, which are not always exact repeats. Equal entries are not always repeated. Where two headings read alike, the source gives them in different places.

Data set [1] in a line: Recovery of injected probes in urine, both rodent species pooled. It counts as in vivo. To be noted: Acomys cahirinus and Acomys russatus (pooled), intraperitoneal, data for both rodent species pooled, post-injection, read-out: Recovery of injected probe in urine, 95% C.I. On the procedure:
(§1) As a measure of passive, paracellular absorption, we used standard methods from pharmacokinetics to measure the whole-organism fractional absorption of water-soluble compounds. As described in more detail, below, metabolically inert probe molecules were injected and also administered orally with a gavage needle to intact animals in separate experiments, and blood and/or urine samples were serially collected and analyzed for the probe molecules by liquid scintillation. Fractional absorption (f) was calculated as [post oral administration AUC]/[ post injection AUC] where AUC = dose-corrected area under the curve of plasma or urine probe amount vs. time. […] In mammals, the probes can be recovered in urine, and estimates of oral absorption take account of possible differential recovery by incorporating data on probes when injected. As shown in Results, recoveries of carbohydrate probes were uniformly high, which is in agreement with measures by others in rats and humans. In birds, plasma is sampled rather than urine, because urine is mixed in the avian cloaca with undigested residue from the intestine. […] In Discussion we elaborate on comparisons between these two procedures and reasons to choose them.
Also, the rodents were transferred to metabolic cages with wire bottoms and a tray beneath from which to collect clean urine samples. At the beginning of a trial, animals were orally dosed at 1.0% body mass with an isosmotic solution containing L-[^14C]arabinose (∼0.02 µCi/g animal) and either [^3H]3OMD-glucose (∼0.1 µCi/g animal) or [^3H]lactulose (∼0.5 µCi/g animal). […]
(§2) After administration of radiolabeled probes, birds and rodents were returned to their cages, where birds had ad libitum access to fruit and the rodents had ad libitum access to sucrose solution (10% w/w). […] Scintillation cocktail (Quicksafe A, Zinsser, UK) was added and samples were counted for disintegrations per minute (dpm) by liquid scintillation (Packard Tri-Carb 1600 TR scintillation counter, Packard INC., Meriden CT, USA), with corrections for quench and appearance of ^14C counts in the ^3H channel. […]

A short description of data set [2]: Fractional absorption of orally administered probes by Tristram's grackle (plasma AUC). The class given is in vivo, Onychognathus tristramii. Conditions: oral; for Tmax: Onychognathus tristramii, plasma, read-out: Time of peak plasma level post oral administration; for Fractional absorption (f): AUCoral/AUCinj, mean ± SEM. On the procedure:
as §1
(§3) Also, the rodents were transferred to metabolic cages with wire bottoms and a tray beneath from which to collect clean urine samples. At the beginning of a trial, animals were orally dosed at 1.0% body mass with an isosmotic solution containing L-[^14C]arabinose (∼0.02 µCi/g animal) and either [^3H]3OMD-glucose (∼0.1 µCi/g animal) or [^3H]lactulose (∼0.5 µCi/g animal). Oral dose solutions also contained NaCl (∼90 mM, ∼180 mOsm) and D-glucose (∼90 mM, ∼90 mOsm). NaCl was included in the solution to balance osmolality. Inclusion of Na^+ also provides an essential ion for Na^+-coupled D-glucose absorption, although it is not strictly necessary in this kind of whole-animal study because animals would still absorb nearly all glucose even if the diet is low in Na^+ because additional Na^+ is secreted into the intestinal lumen together with bicarbonate and diffuses from blood. In a separate experimental trial, each animal was injected (0.6% body mass) with isosmotic NaCl solution containing L-[^14C]arabinose (∼0.02 µCi/g animal) and either [^3H]3OMD-glucose (∼0.1 µCi/g animal) or [^3H]lactulose (∼0.1 µCi/g animal). The injection site was the pectoralis muscle in birds and the peritoneal cavity in rodents. Syringes were weighed before and after dosing animals to determine actual dose administered.
(§4) After administration of radiolabeled probes, birds and rodents were returned to their cages, where birds had ad libitum access to fruit and the rodents had ad libitum access to sucrose solution (10% w/w). The purpose was to provide rodents water and some calories and also make them urinate more. Serial blood samples (∼25 µL) were drawn from the brachial vein of birds as described previously at t = 0 (background), 10, 20, 30, 45, 60, 80 or 90, 120, 150 min post-injection or post-oral administration. Plasma was separated using a standard hematocrit centrifuge, placed in scintillation vials and weighed. […] Scintillation cocktail (Quicksafe A, Zinsser, UK) was added and samples were counted for disintegrations per minute (dpm) by liquid scintillation (Packard Tri-Carb 1600 TR scintillation counter, Packard INC., Meriden CT, USA), with corrections for quench and appearance of ^14C counts in the ^3H channel. […]

Data set [3] is described as follows: Mono-exponential fit of plasma probe concentrations after injection, yellow-vented bulbul. It counts as in vivo, Pycnonotus xanthopygos. Conditions: dose-corrected plasma concentration, mean ± SEM. On the procedure:
as §3, with “In a separate experimental trial, each animal was injected (0.6% body mass) with isosmotic NaCl solution containing L-[^14C]arabinose (∼0.02 µCi/g animal) and either [^3H]3OMD-glucose (∼0.1 µCi/g animal) or [^3H]lactulose (∼0.1 µCi/g animal). The injection site was the pectoralis muscle in birds and the peritoneal cavity in rodents. Syringes were weighed before and after dosing animals to determine actual dose administered.” left out
as §2

A short description of data set [4]: Fractional absorption of orally administered probes by yellow-vented bulbul (plasma AUC). The class given is in vivo, Pycnonotus xanthopygos. Conditions: oral; for Tmax: Pycnonotus xanthopygos, plasma, read-out: Time of peak plasma level post oral administration (converted); for Fractional absorption (f): AUCoral/AUCinj, mean ± SEM. On the procedure:
as §1, §3, §4

Data set [5] can be described thus: Fractional absorption of orally administered probes, both bird species pooled. It counts as in vivo, Onychognathus tristramii and Pycnonotus xanthopygos. To be noted: for Fractional absorption (f): oral, both bird species pooled, mean ± SEM. On the procedure: as §1
as §3, with “In a separate experimental trial, each animal was injected (0.6% body mass) with isosmotic NaCl solution containing L-[^14C]arabinose (∼0.02 µCi/g animal) and either [^3H]3OMD-glucose (∼0.1 µCi/g animal) or [^3H]lactulose (∼0.1 µCi/g animal). The injection site was the pectoralis muscle in birds and the peritoneal cavity in rodents. Syringes were weighed before and after dosing animals to determine actual dose administered.” left out
as §2

On the set-up of data set [6]: method as in earlier work. To be noted: house sparrows; cited from earlier work.
The nature of data set [7]: Fractional absorption of orally administered probes by rodents (urine recovery). The class given is in vivo, Acomys cahirinus and Acomys russatus. To be noted: for Fractional absorption (f): oral, both rodent species pooled, corrected for post-injection recovery, mean ± SEM. On the procedure: as §1, §3, §4
A short description of data set [8]: Mono-exponential fit of plasma probe concentrations after injection, Tristram's grackle. The class given is in vivo, Onychognathus tristramii. To be noted: dose-corrected plasma concentration, mean ± SEM. On the procedure:
as §3, with “In a separate experimental trial, each animal was injected (0.6% body mass) with isosmotic NaCl solution containing L-[^14C]arabinose (∼0.02 µCi/g animal) and either [^3H]3OMD-glucose (∼0.1 µCi/g animal) or [^3H]lactulose (∼0.1 µCi/g animal). The injection site was the pectoralis muscle in birds and the peritoneal cavity in rodents. Syringes were weighed before and after dosing animals to determine actual dose administered.” left out
as §2

On the set-up of data set [9]: method as in PMID 17644690. To be noted: laboratory rats; cited from earlier work.
Details of data set [10]: method as in PMID 2167807. Conditions: humans, corrected for incomplete urine recovery; cited from earlier work.
On the set-up of data set [11]: method as in PMID 17644690. To be noted: rock doves; cited from earlier work.
Data set [12] is described as follows: Recovery of injected probes in urine of common spiny mice. The class given is in vivo. To be noted: Acomys cahirinus (common spiny mouse), ip; A. cahirinus, intraperitoneal injection, cumulative urine recovery, mean ± SEM; read-out: Recovery of injected probe in urine. On the procedure:
(§5) As a measure of passive, paracellular absorption, we used standard methods from pharmacokinetics to measure the whole-organism fractional absorption of water-soluble compounds. As described in more detail, below, metabolically inert probe molecules were injected and also administered orally with a gavage needle to intact animals in separate experiments, and blood and/or urine samples were serially collected and analyzed for the probe molecules by liquid scintillation. Fractional absorption (f) was calculated as [post oral administration AUC]/[ post injection AUC] where AUC = dose-corrected area under the curve of plasma or urine probe amount vs. time. […] In mammals, the probes can be recovered in urine, and estimates of oral absorption take account of possible differential recovery by incorporating data on probes when injected. […]
as §2

Data set [13] is described as follows: Recovery of injected probes in urine of golden spiny mice. It counts as in vivo. Conditions: Acomys russatus (golden spiny mouse), ip; A. russatus, intraperitoneal injection, cumulative urine recovery, mean ± SEM; read-out: Recovery of injected probe in urine. On the procedure: as §5, §2
For data set [14] the following is noted: in vivo; cited from earlier work.
On the set-up of data set [15]: method as in PMID 18025481. To be noted: rats, cited from earlier work.
In data set [16] the test system is whole-animal glucose absorption. More on the design: method as in PMID 20145981. Conditions: American robins; cited from earlier work.
Data set [17] shares this test system. More on the design: method as in PMID 20145981. To be noted: laboratory rats, cited from earlier work.
The conditions of data set [18]: rock doves, nicotine in cationic water-soluble form, predicted from MW size-dependence of paracellular absorption. The text has this: These factors of molecule size, charge, and associated nutrients help define the conditions under which water-soluble SMs may be best absorbed.
The conditions of data set [19]: rock doves, area under the curve calculations; ref F. D. Cid, E. Caviedes-Vidal and W.H. Karasov, unpubl. observations; cited from earlier work.

For the compound `OC1OC[C@H](O)[C@H](O)[C@H]1O` (mixture of isomers) [L-arabinose], the dose excreted in [1] is 81 to 93%. Besides, the Tmax in data set [2] and in [4] was no more than 10 min each time. Also, the “Fractional absorption (f)” value in data set [2] is 0.98±0.07; in [4], 1.10±0.15; in data set [5], 1.03±0.17 and 1.03±0.07; in data set [6], 0.61; in [7] it was 0.37; in data set [7] (listed as arabinose) it was 0.37±0.06. The “Fractional absorption (f)” value is 0.34 in data set [9], 0.26 in data set [10] and 0.61 in data set [11]. Also, the figures for the “A, mono-exponential fit Ct = A e^−αt” value in data set [3] and in [8] were 73.1±4.2 mg^−1 plasma and 25.1±3.1 mg^−1 plasma, respectively.
With `OC[C@H]1O[C@@H](O[C@@H]2[C@@H](CO)OC(O)(CO)[C@H]2O)[C@H](O)[C@@H](O)[C@H]1O` (mixture of isomers) [lactulose], the dose excreted in data set [1] lay in the range of 90 to 97%. Moreover, the “Fractional absorption (f)” value in data set [2] was found to be 0.069±0.011; in data set [4], 0.30±0.10; in [5], 0.17±0.06; in data set [7], 0.085±0.021.
In the case of `CO[C@@H]([C@H](O)[C@H](O)CO)[C@@H](O)C=O` [3-O-methyl-D-glucose], the dose excreted in data set [1] was 96 to 101%; in data set [12], 100 ± 1%; in data set [13], 93 ± 3%. Besides, the Tmax is 40 to 50 min in [2] and 30 min in [4]. The “Fractional absorption (f)” value is recorded as 0.95±0.08 in data set [2], 0.80±0.19 in [4], 0.88±0.08 in [5] and 0.95±0.01 in data set [7]. The figures for the “A, mono-exponential fit Ct = A e^−αt” value in data set [3] and in data set [8] were 81.1±10.4 mg^−1 plasma and 22.6±3.0 mg^−1 plasma, respectively. Besides, the “Ratio f L-arabinose/f 3OMD-glucose (proportion of 3OMD-glucose absorption that is passive)” value in data set [5] (birds, corrected for difference in MW) was 1; in [7] (rodents, corrected for difference in MW), 0.34.
Regarding `O=C[C@@H](O)[C@H](O)[C@@H](O)[C@@H](O)CO` [L-glucose], the “Share of glucose absorption accounted for by L-glucose (passive)” value in data set [14] is 50 to >90.
Regarding `C[C@H](O)[C@H](O)[C@@H](O)[C@@H](O)C=O` [L-rhamnose], the Fractional absorption is 0.24±0.03 in [15] (estimate from serially sampling blood) and 0.22±0.03 in data set [15] (measured by urine recovery).
Take `O=c1c(OC2OC(CO)C(O)C(O)C2O)c(-c2ccc(O)c(O)c2)oc2cc(O)cc(O)c12` (centres unmarked) [isoquercetrin]: the entries for the “Effect on glucose absorption” value in data set [16] and in [17] were “not in robins” and “significantly decreased glucose absorption”, respectively.
As to `CN1CCC[C@H]1c1cccnc1` [nicotine], the “Predicted absorption of a dose” value in data set [18] is reported as “around 40%”. Besides, the “Absorption of a dose” value in data set [19] is given as 44±3%.
For `O=C(CCc1ccc(O)cc1)c1c(O)cc(O)cc1O[C@@H]1O[C@H](CO)[C@@H](O)[C@H](O)[C@H]1O` [phloridzin], the “Effect on glucose absorption” value in data set [16] is reported as “did not significantly decrease glucose absorption”. Further, the “Inhibition of whole-animal glucose absorption efficiency” value in data set [17] (10 mM) is greater than 36%.
